Entries after “also recorded” stand apart in the source; their conditions may differ.
Columns and labels:
Format in all cases: cell-based
[1] = tested on: gram-positive bacteria; assay: minimum growth inhibitory concentration / growth inhibition in agar media; conditions: for growth inhibitory effect against gram-positive bacteria: 0.5%, used independently, agar medium pH 7.0
Experimental: (§1) When a variety of bacteria are cultured in agar media in the presence of 1,5-D-anhydrofructose without any of an antioxidant or a chelating agent, a minimum growth inhibitory concentration of 1,5-D-anhydrofructose is 3.0 to 5.0% for gram-negative bacteria and 1.0 to 3.0% for gram-positive bacteria. Under the circumstances, influences on growth of a variety of bacteria in the presence of 1,5-D-anhydrofructose with or without sodium ascorbate which is a typical antioxidant to be used in food and beverages were examined.
(§2) After the bacterial strains were suspended in physiological salt solutions, they were inoculated into agar media (each containing 0.25% of yeast extract, 0.5% of polypeptone, […]) with platinum loops and then cultured at 37° C. until colonies were formed. Thereafter, the bacteria were inoculated, with sterilized toothpicks, from the colonies into agar media of the above composition each of which contained 1.0% of sodium ascorbate and 1.0% of 1,5-D-anhydrofructose, and into agar media of the above composition each of which contained 1.0% of 1,5-D-anhydrofructose and no sodium ascorbate. For controls, culture media of the same composition each of which contained neither sodium ascorbate nor 1,5-D-anhydrofructose and culture media of the same composition each of which contained 1.0% of sodium ascorbate and no 1,5-D-anhydrofructose were used. Abilities of sodium ascorbate and 1,5-D-anhydrofructose to suppress/inhibit growth of the bacteria were evaluated by visually observing the colonies formed after the bacteria were cultured at 37° C. for one night.
(§3) The substances were used at concentrations shown in the legend of Table 4.

[2] = tested on: Bacillus subtillis IFO 3009; assay: growth suppression/inhibition on agar media, colonies observed visually; conditions: agar medium pH 7.0, 37° C. one night; BHA 0.5%, BHT 0.5%, 1,5-D-anhydrofructose 1%
[3] = tested on: Enterobactor cloacae JCM 1232; assay: as above; conditions: agar medium pH 7.0, 37° C. one night; BHA 0.5%, BHT 0.5%, 1,5-D-anhydrofructose 1%
[4] = tested on: Pseudomonas aeruginosa IFO 12689; assay: as above; conditions: agar medium pH 6.5, 37° C. one night
From the text: (§4) Under the circumstances, influences on growth of a variety of bacteria in the presence of 1,5-D-anhydrofructose with or without sodium ascorbate which is a typical antioxidant to be used in food and beverages were examined.
(§5) After the bacterial strains were suspended in physiological salt solutions, they were inoculated into agar media (each containing 0.25% of yeast extract, 0.5% of polypeptone, 1.0% of glucose and 1.5% of soft agar and having a pH of 6.5) with platinum loops and then cultured at 37° C. until colonies were formed. Thereafter, the bacteria were inoculated, with sterilized toothpicks, from the colonies into agar media of the above composition each of which contained 1.0% of sodium ascorbate and 1.0% of 1,5-D-anhydrofructose, and into agar media of the above composition each of which contained 1.0% of 1,5-D-anhydrofructose and no sodium ascorbate. For controls, culture media of the same composition each of which contained neither sodium ascorbate nor 1,5-D-anhydrofructose and culture media of the same composition each of which contained 1.0% of sodium ascorbate and no 1,5-D-anhydrofructose were used. Abilities of sodium ascorbate and 1,5-D-anhydrofructose to suppress/inhibit growth of the bacteria were evaluated by visually observing the colonies formed after the bacteria were cultured at 37° C. for one night.
as §3
(§6) Those cultured in the absence of the chelating agents, 1,5-D-anhydrofructose, sodium ascorbate and sodium erythorbate were taken as controls. As for an agar medium, a method for inoculating the bacteria, conditions for culturing the bacteria, and a method for evaluating a growth suppressing/inhibiting ability, they are the same as those used in the tests whose results are shown in Tables 2 and 3.

[5] = tested on: Enterobactor cloacae JCM 1232; assay: as above; conditions: agar medium pH 6.5, 37° C. one night
From the text: as §4, §5, §3, §6

[6] = tested on: Streptococcus eqinus ATCC 9812; assay: as above; conditions: agar medium pH 6.5, 37° C. one night
From the text: as §4, §5, §3, §6

[7] = tested on: Bacillus subtillis IFO 3009; assay: as above; conditions: agar medium pH 6.5, 37° C. one night
From the text: as §4, §5, §3, §6

[8] = tested on: Pseudomonas aeruginosa IFO 12689; assay: as above; conditions: agar medium pH 7.0, 37° C. one night; BHA 0.5%, BHT 0.5%, 1,5-D-anhydrofructose 1%
[9] = tested on: Streptococcus eqinus ATCC 9812; assay: as above; conditions: agar medium pH 7.0, 37° C. one night; BHA 0.5%, BHT 0.5%, 1,5-D-anhydrofructose 1%
[10] = tested on: Proteus vulgaris IFO 3851; assay: as above
Experimental: as §4, §2, §3, §6

[11] = tested on: Escherichia coli IFO 3301; assay: as above
Experimental: as §4, §2, §3, §6

[12] = tested on: Lactobacillus casei ATCC 393; assay: as above
Experimental: as §4, §2, §3, §6

[13] = tested on: Bacillus cereus IFO 3131; assay: as above
Experimental: as §4, §2, §3, §6

[14] = tested on: a variety of bacteria (strains of Table 1); assay: growth suppression on agar media, summary statements for all tested bacteria; conditions: solely used at the concentrations of the tests (sodium ascorbate 1.0%, sodium erythorbate 0.2%, chelating agents 0.2-0.5%)
Experimental: as §1, §5, §6

[15] = 1,5-D-anhydrofructose 1%, sodium citrate 0.5%, sodium polyphosphate 0.2%, sodium malate 0.5%, sodium gluconate 0.5%, sodium tartrate 0.5%, sodium ascorbate 1%, sodium erythorbate 0.2%
[16] = sodium ascorbate 1%, 1,5-D-anhydrofructose 1%
[17] = sodium erythorbate 0.2%, 1,5-D-anhydrofructose 1%
[18] = agar medium pH 6.5, 37° C. one night, 1,5-D-anhydrofructose 1%, sodium citrate 0.5%, sodium polyphosphate 0.2%, sodium malate 0.5%, sodium gluconate 0.5%, sodium tartrate 0.5%, sodium ascorbate 1%, sodium erythorbate 0.2%
[19] = agar medium pH 6.5, 37° C. one night, sodium ascorbate 1%, 1,5-D-anhydrofructose 1%
[20] = agar medium pH 6.5, 37° C. one night, sodium erythorbate 0.2%, 1,5-D-anhydrofructose 1%
[21] = agar medium pH 7.0, 37° C. one night, BHA 0.5%, BHT 0.5%, 1,5-D-anhydrofructose 1%

Structure (SMILES) | condition of the colonies [2] | condition of the colonies [3] | condition of the colonies [4, 15] | condition of the colonies [4, 16] | condition of the colonies [4, 17] | condition of the colonies [5, 15] | condition of the colonies [5, 16] | condition of the colonies [5, 17] | condition of the colonies [6, 15] | condition of the colonies [7, 15] | condition of the colonies [8] | condition of the colonies [9] | condition of the colonies [10, 18] | condition of the colonies [10, 21] | condition of the colonies [11, 18] | condition of the colonies [11, 21] | condition of the colonies [12, 18] | condition of the colonies [12, 21] | condition of the colonies [13, 18] | condition of the colonies [13, 21] | other results
O=C1CO[C@H](CO)[C@@H](O)[C@@H]1O [1,5-D-anhydrofructose] | + | + | + | + | + | + | + | + | ± | + | + | ± | ± | ± | + | + | ± | ± | ± | ± | minimum growth inhibitory concentration ([1]; agar media, without any antioxidant or chelating agent): 1.0 to 3.0%; condition of the colonies [6, 16]: ±; condition of the colonies [6, 17]: ±; condition of the colonies [7, 16]: +; condition of the colonies [7, 17]: +; condition of the colonies [10, 19]: ±; condition of the colonies [10, 20]: ±; condition of the colonies [11, 19]: +; condition of the colonies [11, 20]: +; condition of the colonies [12, 19]: ±; condition of the colonies [12, 20]: ±; condition of the colonies [13, 19]: ±; condition of the colonies [13, 20]: ±
COc1ccc(O)c(C(C)(C)C)c1 [BHA, butylhydroxyanisol] | − | ± |  |  |  |  |  |  |  |  | + | − |  | − |  | − |  | − |  | − | growth inhibitory effect against gram-positive bacteria [1]: exhibited a growth inhibitory effect against all of the examined gram-positive bacteria
Cc1cc(C(C)(C)C)c(O)c(C(C)(C)C)c1 [BHT, dibutylhydroxytoluene] | − | + |  |  |  |  |  |  |  |  | + | − |  | ± |  | + |  | − |  | − | growth inhibitory effect against gram-positive bacteria [1]: exhibited a growth inhibitory effect against all of the examined gram-positive bacteria
O=C1O[C@H]([C@@H](O)CO)C([O-])=C1O.[Na+] [sodium ascorbate] |  |  | + | + |  | + | + |  | + | + |  |  | + |  | + |  | + |  | + |  | growth suppressing ability when solely used [14]: does not have a growth suppressing ability against any of the bacteria; also recorded: do not inhibit growth of the bacteria; condition of the colonies [6, 16]: +; condition of the colonies [7, 16]: +; condition of the colonies [10, 19]: +; condition of the colonies [11, 19]: +; condition of the colonies [12, 19]: +; condition of the colonies [13, 19]: +
O=C([O-])CC(O)(CC(=O)[O-])C(=O)[O-].[Na+].[Na+].[Na+] [sodium citrate] |  |  | + |  |  | + |  |  | + | + |  |  | + |  | + |  | + |  | + |  | 
O=C1O[C@H]([C@H](O)CO)C([O-])=C1O.[Na+] [sodium erythorbate] |  |  | + |  | + | + |  | + | + | + |  |  | + |  | + |  | + |  | + |  | growth suppressing ability when solely used [14]: do not inhibit growth of the bacteria; condition of the colonies [6, 17]: +; condition of the colonies [7, 17]: +; condition of the colonies [10, 20]: +; condition of the colonies [11, 20]: +; condition of the colonies [12, 20]: +; condition of the colonies [13, 20]: +

From patent US20030161862A1, “Bacterial growth regulators or inhibitors with the use of 1,5-d-anhydrofructose” (priority 2000, published 2003)
